Data set [1] deals with A/HK/7/87. Put plainly: microbe, parasite or virus in culture. The conditions noted are these: for EC90: Influenza A virus, MDCK, 24 h, read-out: Activity against A/HK/7/87 EC90. In kind it is cell-based, influenza A virus.
The test system of data set [2] is Influenza A/H1N1 (A/PR/8/34). The class given is cell-based, influenza A virus.
Data set [3] has as its system MDCK cells.
Data set [4] addresses A/M2 wt (Influenza A virus, UniProt P0DOF5). The conditions noted are these: cited from earlier work.
The subject of data set [5] is MDCK cells. The source holds these as a separate data set.
Where [6] appears, read: read-out: Antiviral EC50 Influenza A/H1N1 CPE.
Where [7] appears, read: read-out: Antiviral EC50 Influenza A/H1N1 MTS.
[8] abbreviates: MDCK, minimal alterations in cell morphology after 72 hr.
[9] abbreviates: minimal alterations in cell morphology after 24 hr incubation.

Read-outs that look alike come from different tables or passages of the source. Some results are limits rather than exact numbers.

A/M2 wt, sequence (P0DOF5 whole entry): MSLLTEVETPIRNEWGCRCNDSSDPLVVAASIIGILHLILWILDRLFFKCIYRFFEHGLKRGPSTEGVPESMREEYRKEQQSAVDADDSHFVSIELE

For the compound `Cl.N=C(N)N1CC23CC4CC2(CC4C3)C1` [Compound 16b, 3-Amidino-3-azatetracyclo[5.2.1.1^5,8.0^1,5]undecane hydrochloride], the “Activity against A/HK/7/87 EC99” value in data set [1] is ≥38 µM. Further, the EC50 in data set [2] (setting [6]) and in data set [2] (setting [7]) was > 50 µM in each case. Also, the “Cytotoxicity at 24 hr MCC” value in data set [3] (dog) was >50 µM.

In the case of `NC12C3CCC4C3C3C(CCC31)C42` [Compound 8], the “Activity against the wt A/M2 channel (in words)” value (“Activity … (in words)” for short) in data set [4] is reported as “did not inhibit”.

As for `Cl.N=C(N)N1CC23CC45CCCCC4(C2)CC3(C1)C5` [Compound 16d, 12-Amidino-12-azapentacyclo[6.5.1.1^3,10.0^1,10.0^3,8]pentadecane hydrochloride], in data set [5] (dog), the “Cytotoxicity at 72 hr MCC (minimum cytotoxic concentration)” value (shortened to “Cytotoxicity at 72 hr MCC”) stood at 4.0 µM. Further, in data set [1], the “Activity against A/HK/7/87 EC99” value was >2 µM and the EC90 was < 1 µM. The EC50 in data set [2] (setting [6]) is > 100 µM. Also, the EC50 in data set [2] (setting [7]) is > 100 µM. The “Cytotoxicity at 24 hr MCC” value in data set [3] (dog) was ≥10 µM.

In the case of `C1CCC23CC45CNCC4(CC2(C1)C5)C3.O=C(O)C(O)C(O)C(=O)O` [Compound 14d, 12-Azapentacyclo[6.5.1.1^3,10.0^1,10.0^3,8]pentadecane (2R,3R)-tartrate], the “Cytotoxicity at 72 hr MCC” value in data set [5] (setting [8]) amounted to 4.0 µM. Besides, in data set [1], the “Activity against A/HK/7/87 EC99” value was >10 µM and the EC90 was < 1 µM. Moreover, the EC50 in data set [2] (setting [6]) was > 100 µM. The EC50 in data set [2] (setting [7]) was > 100 µM. The “Cytotoxicity at 24 hr MCC” value in data set [3] (setting [9]) is >50 µM.

As to `C1NCC23CC4CC12CC4C3.Cl` [Compound 14b, 3-azatetracyclo[5.2.1.1^5,8.0^1,5]undecane hydrochloride], in data set [5] (dog), the “Cytotoxicity at 72 hr MCC” value turned out to be 100 µM. Moreover, the EC50 in data set [2] (setting [6]) and in data set [2] (setting [7]) was > 100 µM throughout.

With `CC(N)C12CC3CC(CC(C3)C1)C2` (centres unmarked) [Rimantadine, rimantadine, reference compound], the “Cytotoxicity at 72 hr MCC” value in data set [5] (setting [8]) turned out to be 500 µM. The “Activity against A/HK/7/87 EC99” value in data set [1] was >4 µM. Moreover, the “Cytotoxicity at 24 hr MCC” value in data set [3] (setting [9]) was ≥500 µM.

Regarding `NCC12C3CCC4C3C3C(CCC31)C42` [Compound 9], the “Activity … (in words)” value in data set [4] is “did not inhibit”.

On to `CC12CC34CNCC3(C1)CC2(C)C4.Cl` [Compound 14a, 7,8-Dimethyl-3-azatetracyclo[5.2.1.1^5,8.0^1,5]undecane hydrochloride], for which the “Cytotoxicity at 72 hr MCC” value in data set [5] (dog) stood at 100 µM. The EC50 in data set [2] (setting [6]) and in data set [2] (setting [7]) was > 100 µM each time.

Take `NC12CC3CC(CC(C3)C1)C2` [Amantadine, amantadine, reference compound]: the “Activity against A/HK/7/87 EC99” value in data set [1] (listed as Amt) is ~ 1 μM.

On to `CN1CC23CC4(C)CC2(C1)CC4(C)C3.Cl` [Compound 15a, 3,7,8-Trimethyl-3-azatetracyclo[5.2.1.1^5,8.0^1,5]undecane hydrochloride], for which the “Cytotoxicity at 72 hr MCC” value in data set [5] (dog) was ≥20 µM. The EC50 in data set [2] (setting [6]) and in data set [2] (setting [7]) was > 100 µM throughout.

As for `C1=CC2C3C4C5C=CC4C24CNCC54C13` [Compound 10], in data set [4], the “Activity … (in words)” value is given as “promising activity”.

Turning to `CN1CC23CC4CC2(CC4C3)C1.Cl` [Compound 15b, 3-Methyl-3-azatetracyclo[5.2.1.1^5,8.0^1,5]undecane hydrochloride], the “Cytotoxicity at 72 hr MCC” value in data set [5] (dog) is ≥100 µM. The EC50 in data set [2] (setting [6]) and in data set [2] (setting [7]) was > 100 µM in each case.

Consider `CC12CC34CN(C(=N)N)CC3(C1)CC2(C)C4.Cl` [Compound 16a, 3-Amidino-7,8-dimethyl-3-azatetracyclo[5.2.1.1^5,8.0^1,5]undecane hydrochloride], for which, in data set [5] (dog), the “Cytotoxicity at 72 hr MCC” value stood at 4 µM. Also, in data set [1], the “Activity against A/HK/7/87 EC99” value was 0.79 µM and the EC90 was < 1 µM. Moreover, in data set [2] (setting [6]), the EC50 is > 100 µM. The EC50 in data set [2] (setting [7]) was > 100 µM. The “Cytotoxicity at 24 hr MCC” value in data set [3] (dog) is >50 µM.

As for `C1C2C1C1C3C4C5C6CC6C4C14CNCC54C23` (centres unmarked) [Compound 11], the “Activity … (in words)” value in data set [4] is recorded as “promising activity”.

Consider `NC(=O)c1ncn([C@@H]2O[C@H](CO)[C@@H](O)[C@H]2O)n1` [Ribavirin, reference compound], for which, in data set [1], the “Activity against A/HK/7/87 EC99” value is 11 µM. For the same compound, the “Cytotoxicity at 24 hr MCC” value in data set [3] (dog) is >100 µM.

These data come from article PMC3889466 (Journal of medicinal chemistry, 2013).
